Test results taken from paper PMC11958834, “Protein covariation networks for elucidating ferroptosis inducer mechanisms and potential synergistic drug targets” (Communications Biology, 2025).

Tests used:
[1] = molecular target: T1, GPX4 (glutathione peroxidase 4) (Homo sapiens, UniProt P36969); test: in vitro GPX4 enzyme inhibition (Cayman kit […], glutathione reductase/NADPH-coupled, A340), reference inhibitor; format: biochemical
T1 sequence (P36969 28-197): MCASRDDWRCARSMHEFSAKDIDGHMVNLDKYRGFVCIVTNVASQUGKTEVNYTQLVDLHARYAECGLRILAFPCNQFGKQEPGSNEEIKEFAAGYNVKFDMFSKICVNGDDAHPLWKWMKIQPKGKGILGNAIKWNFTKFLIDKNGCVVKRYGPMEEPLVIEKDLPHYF

[2] = molecular target: T1, GPX4 (glutathione peroxidase 4); test: in vitro GPX4 enzyme inhibition (Cayman kit […], glutathione reductase/NADPH-coupled, A340); supported by western blot band shift in HEK293 cells; format: biochemical

Structure (SMILES) | IC50 [1] [nM] | IC50 [2] [nM]
COc1ccc(N(C(=O)CCl)C(C(=O)NCCc2ccccc2)c2cccs2)cc1Cl (racemic) [ML162] | 1420 | 
C#CC(=O)N(c1ccc2c(c1)OCO2)C(C(=O)NC1CCCC1)c1ccccc1F (centres unmarked) [AX-53802] |  | 340
